From patent publication US20200085776A1, “Methods of Reducing C-Reactive Protein and/or Treating Cardiovascular Disease” (CARDAX, INC., priority 2018, published 2020)

System: Cholesterol
Test: Fasting lipid panel: total cholesterol, CHASE clinical study
Assay type: in vivo, human
Conditions: for Cholesterol V2 to V6 % Change Max / Cholesterol V2 to V6 % Change Mean (SD) / Cholesterol V2 to V6 % Change Median / Cholesterol V2 to V6 % Change Min / Cholesterol V2 to V6 Change Max / Cholesterol V2 to V6 Change Mean (SD) / Cholesterol V2 to V6 Change Median / Cholesterol V2 to V6 Change Min: baseline to Week 12
From the text: Blood samples shall be obtained under fasted conditions for a lipid panel at V2, V4, V6, V7, and V8. This panel shall include total cholesterol, LDL-C, VLDL-C, HDL-C, and triglycerides. A minimum eight-hour fast (water allowed) is required for the lipid panel.
Fasting lipid profiles and fasting chemistry panels may be obtained within the visit time window on a day separate from the scheduled office visit, within two days before or after the other study procedures. A minimum of eight hours fasted (water allowed ad lib) is required.
Table 7M provides the changes in lipid levels (mg/dL) (V2 to V6) for subjects.

[1] = Group X 12 mg BID, V2 baseline pre-dose, all subjects
[2] = Group X 12 mg BID, V2 baseline pre-dose, subjects with hyperlipidemia
[3] = Group X 12 mg BID, V6 Week 12, all subjects
[4] = Group X 12 mg BID, V6 Week 12, subjects with hyperlipidemia
[5] = Group X 12 mg BID, all subjects
[6] = Group X 12 mg BID, subjects with hyperlipidemia
[7] = Group Z 48 mg BID, V2 baseline pre-dose, all subjects
[8] = Group Z 48 mg BID, V2 baseline pre-dose, subjects with hyperlipidemia
[9] = Group Z 48 mg BID, V6 Week 12, all subjects
[10] = Group Z 48 mg BID, V6 Week 12, subjects with hyperlipidemia
[11] = Group Z 48 mg BID, all subjects
[12] = Group Z 48 mg BID, subjects with hyperlipidemia

CC1=C(/C=C/C(C)=C/C=C/C(C)=C/C=C/C=C(C)/C=C/C=C(C)/C=C/C2=C(C)C(=O)C(O)CC2(C)C)C(C)(C)CC(O)C1=O (stereo not shown) [Astaxanthin, astaxanthin]
Cholesterol Max [1]: 342.0 mg/dL | Cholesterol Mean (SD) [1]: 192.0 (65.49) mg/dL | Cholesterol Median [1]: 180.0 mg/dL | Cholesterol Min [1]: 113. mg/dL | Cholesterol Max [2]: 342.0 mg/dL | Cholesterol Mean (SD) [2]: 184.5 (73.91) mg/dL | Cholesterol Median [2]: 164.0 mg/dL | Cholesterol Min [2]: 113.0 mg/dL | Cholesterol Max [3]: 339.0 mg/dL | Cholesterol Mean (SD) [3]: 182.6 (70.21) mg/dL | Cholesterol Median [3]: 163.0 mg/dL | Cholesterol Min [3]: 117.0 mg/dL | Cholesterol Max [4]: 339.0 mg/dL | Cholesterol Mean (SD) [4]: 170.3 (74.95) mg/dL | Cholesterol Median [4]: 137.5 mg/dL | Cholesterol Min [4]: 117.0 mg/dL | Cholesterol V2 to V6 % Change Max [5]: 6.67% | Cholesterol V2 to V6 % Change Mean (SD) [5]: −5.34 (10.55) % | Cholesterol V2 to V6 % Change Median [5]: −4.90% | Cholesterol V2 to V6 % Change Min [5]: −25.0% | Cholesterol V2 to V6 Change Max [5]: 17.00 mg/dL | Cholesterol V2 to V6 Change Mean (SD) [5]: −9.45 (18.08) mg/dL | Cholesterol V2 to V6 Change Median [5]: -7.00 mg/dL | Cholesterol V2 to V6 Change Min [5]: -39.0 mg/dL | Cholesterol V2 to V6 % Change Max [6]: 6.20% | Cholesterol V2 to V6 % Change Mean (SD) [6]: −7.65 (11.10) % | Cholesterol V2 to V6 % Change Median [6]: −6.92% | Cholesterol V2 to V6 % Change Min [6]: −25.0% | Cholesterol V2 to V6 Change Max [6]: 8.00 mg/dL | Cholesterol V2 to V6 Change Mean (SD) [6]: −14.3 (17.60) mg/dL | Cholesterol V2 to V6 Change Median [6]: -14.0 mg/dL | Cholesterol V2 to V6 Change Min [6]: -39.0 mg/dL | Cholesterol Max [7]: 316.0 mg/dL | Cholesterol Mean (SD) [7]: 195.1 (57.82) mg/dL | Cholesterol Median [7]: 190.0 mg/dL | Cholesterol Min [7]: 121.0 mg/dL | Cholesterol Max [8]: 316.0 mg/dL | Cholesterol Mean (SD) [8]: 189.7 (58.32) mg/dL | Cholesterol Median [8]: 173.0 mg/dL | Cholesterol Min [8]: 121.0 mg/dL | Cholesterol Max [9]: 284.0 mg/dL | Cholesterol Mean (SD) [9]: 169.7 (45.52) mg/dL | Cholesterol Median [9]: 160.5 mg/dL | Cholesterol Min [9]: 104.0 mg/dL | Cholesterol Max [10]: 284.0 mg/dL | Cholesterol Mean (SD) [10]: 161.9 (46.52) mg/dL | Cholesterol Median [10]: 151.0 mg/dL | Cholesterol Min [10]: 104.0 mg/dL | Cholesterol V2 to V6 % Change Max [11]: 15.86% | Cholesterol V2 to V6 % Change Mean (SD) [11]: −8.52 (14.73) % | Cholesterol V2 to V6 % Change Median [11]: −8.29% | Cholesterol V2 to V6 % Change Min [11]: −38.0% | Cholesterol V2 to V6 Change Max [11]: 32.00 mg/dL | Cholesterol V2 to V6 Change Mean (SD) [11]: −18.6 (31.99) mg/dL | Cholesterol V2 to V6 Change Median [11]: -13.5 mg/dL | Cholesterol V2 to V6 Change Min [11]: -92.0 mg/dL | Cholesterol V2 to V6 % Change Max [12]: 15.86% | Cholesterol V2 to V6 % Change Mean (SD) [12]: −9.11 (16.06) % | Cholesterol V2 to V6 % Change Median [12]: −8.48% | Cholesterol V2 to V6 % Change Min [12]: −38.0% | Cholesterol V2 to V6 Change Max [12]: 32.00 mg/dL | Cholesterol V2 to V6 Change Mean (SD) [12]: −18.8 (33.97) mg/dL | Cholesterol V2 to V6 Change Median [12]: -13.5 mg/dL | Cholesterol V2 to V6 Change Min [12]: -92.0 mg/dL
